{"source": "patent US20140113958A1", "about": "“HCV Combination Therapy” (priority 2011, published 2014)", "key": {"[1]": {"conditions": "compared with interferon alpha-2b"}, "cytochrome 450": {"system": "cytochrome 450", "test": "Metabolism by cytochrome 450 mechanisms", "assay_type": "in vitro ADME"}, "[2]": {"system": "HCV genotype 1b replicon NS5B M423I", "assay_type": "cell-based", "conditions": "EC50 mutant / EC50 wild-type; mean of two experiments (individual values)", "protocol": "(§1) The in vitro antiviral of miravirsen was evaluated against wild-type HCV genotype 1b replicon and HCV genotype 1b replicons constructed to contain key amino acid substitutions in NS3 protease (A156T, R155K), NS5B polymerase (S282T, M423I) and NS5A protein (Y93H) in transient transfection assays utilizing Huh 7 cells. […] Huh 7 cells were transfected with either the wild-type or the mutant RNA constructs by electroporation. Luciferase activity was measured 72 hours after compound treatment and EC50 values determined from dose-response curves. Fold resistance was expressed as the ratio of the EC50 for mutant HCV replicon to the EC50 for wild-type HCV replicon.\n(§2) The in vitro antiviral of miravirsen was evaluated against wild-type HCV genotype 1b replicon and HCV replicons constructed to contain key amino acid substitutions in NS3 protease (A156T, R155K), NS5B polymerase (S282T, M423I) and NS5A protein (Y93H) in transient transfection assays. […] Huh 7 cells were transfected with either the wild type or the mutant RNA constructs by electroporation. Luciferase activity was measured 72 hours after compound treatment and EC50 values determined from dose-response curves. Fold resistance was expressed as the ratio of the EC50 for mutant HCV replicon to the EC50 for wild-type HCV replicon. Results are expressed as the mean of two individual experiments. In an initial set of experiments, the standard protocol was modified by adding compounds 24 hours after electroporation. […] In a third experiment cells were pretreated with miravirsen for 24 hours before electroporation with wild-type RNA constructs to determine if preincubation could result in increased miravirsen antiviral activity."}, "[3]": {"system": "HCV genotype 1b replicon NS3 A156T", "assay_type": "cell-based", "conditions": "EC50 mutant / EC50 wild-type, mean of two experiments (individual values)", "protocol": "as §1, §2"}, "[4]": {"system": "HCV genotype 1b replicon NS5A Y93H", "assay_type": "cell-based", "conditions": "EC50 mutant / EC50 wild-type; mean of two experiments (individual values)", "protocol": "as §1, §2"}, "[5]": {"system": "HCV genotype 1b replicon NS5B S282T", "assay_type": "cell-based", "conditions": "EC50 mutant / EC50 wild-type; mean of two experiments (individual values)", "protocol": "as §1, §2"}, "HCV genotype 1": {"system": "HCV genotype 1", "test": "Phase 2a clinical trial, miravirsen monotherapy", "assay_type": "in vivo, human", "conditions": "for mean of the maximum HCV RNA decline from baseline: 5 weekly doses subcutaneously over 29 days, chronic HCV genotype 1 patients", "protocol": "Thirty-six treatment-naïve chronic HCV genotype 1 infected patients were enrolled into 3 sequential dosing cohorts and received 5 weekly doses of miravirsen 3, 5, or 7 mg/kg (n=27) or placebo (n=9) subcutaneously over 29 days and were followed up until week 18."}, "all HCV genotypes": {"system": "all HCV genotypes", "test": "Activity against HCV genotypes in vitro", "assay_type": "cell-based"}, "[6]": {"system": "wild-type HCV genotype 1b replicon", "test": "Transient transfection replicon assay in Huh 7 cells (luciferase, 72 hours), wild-type", "assay_type": "cell-based", "experimental": "The in vitro antiviral of miravirsen was evaluated against wild-type HCV genotype 1b replicon and HCV replicons constructed to contain key amino acid substitutions in NS3 protease (A156T, R155K), NS5B polymerase (S282T, M423I) and NS5A protein (Y93H) in transient transfection assays. […] Huh 7 cells were transfected with either the wild type or the mutant RNA constructs by electroporation. Luciferase activity was measured 72 hours after compound treatment and EC50 values determined from dose-response curves. Fold resistance was expressed as the ratio of the EC50 for mutant HCV replicon to the EC50 for wild-type HCV replicon. Results are expressed as the mean of two individual experiments. […]"}, "Huh-luc/neo-ET cells": {"system": "Huh-luc/neo-ET cells", "test": "Cellular toxicity by XTT dye reduction in Huh-luc/neo-ET cells", "protocol": "The anti-viral efficacy and cellular toxicity of non-transfected antimiR oligonucleotide in combination with approved and experimental anti-HCV therapeutics (e.g. NM283, 2′-C-methylcytidine, and/or VX-222) (or other NS5B polymerase inhibitors) was determined in the reporter cell line Huh-luc/neo-ET. This cell line harbors the persistently replicating I389luc-ubi-neo/NS3-3′/ET replicon containing the firefly luciferase gene-ubiquitin-neomycin phosphotransferase fusion protein and EMCV IRES driven NS3-5B HCV coding sequences containing the ET tissue culture adaptive mutations (E1202G, T1208I, and K1846T). Eight dilutions of non-transfected antimiR oligonucleotide (bracketing the calculated EC50) were evaluated in triplicate on duplicate sets of three plates with five dilutions of each of the control compounds (bracketing the calculated EC50). One set of plates was used for the determination of cellular toxicity and the other set of plates was used for the determination of anti-viral efficacy. The efficacy and toxicity results was quantified with firefly luciferase activity and XTT dye reduction, respectively, and the results of the assay is imported into the Prichard and Shipman MacSynergy II software program. The MacSynery II analysis includes calculation of the dose response of the two (or more) compounds when used alone followed by calculation of the expected additive level of antiviral inhibition or toxicity when the compounds are used together based on the individual dose response curves. The expected level of activity at each of the concentration data points was compared to the experimentally determined antiviral activity in the assay. The expected activity was subtracted from the realized activity, yielding a negative, zero or positive value. These values are plotted as a three dimensional representation of the data and the result is reported as a two-factor value, expressing the combined average above the expected level of activity (synergy volume) and the combined average below the expected level of activity (antagonism volume). Combination analysis was performed two or more times for each pair of test compound and control substance.\nThe reporter cell line Huh-luc/neo-ET was obtained from Dr. Ralf Bartenschlager (Department of Molecular Virology, Hygiene Institute, University of Heidelberg, Germany) by ImQuest BioSciences. This cell line harbors the persistently replicating 1389luc-ubi-neo/NS3-3′IET replicon containing the firefly luciferase gene-ubiquitinneomycin phosphotransferase fusion protein and EMCV IRES driven NS3-5B HCV coding sequences containing the ET tissue culture adaptive mutations (E 1202G, T12081, and KI846T). A stock culture of the Huh-luc/neo-ET was expanded by culture in DMEM supplemented with 10% FBS, 2 mM glutamine, penicillin (100 IU/mL)/streptomycin (100 f·Ig/mL) and IX nonessential amino acids plus I mg/ml G418. Prior to plating, the cells were split 1:4 and cultured for two passages in the same medium plus 250 f·Ig/mL G418. The cells were treated with trypsin and enumerated by staining with trypan blue and seeded into 96-well tissue culture plates at a cell culture density 5.0×10^3 cells per well in a volume of 85 f·IL per well and incubated at […] in an environment of 5% CO2 for 24 hours. Six plates were established for the determination of combination efficacy (EC50) and cytotoxicity (TC50) for each of the compound combinations (three plates each for efficacy and toxicity). […]"}, "HCV": {"system": "HCV", "test": "HCV RNA suppression in vivo"}, "[7]": {"conditions": "chronic HCV genotype 1 infected patients"}, "[8]": {"conditions": "in combination with ribavirin, 95% confidence level"}, "[9]": {"conditions": "second drug in combination with miravirsen (SPC3649), 95% confidence interval, median or individual values"}}, "note": "Entries after “also recorded” stand apart in the source; their conditions may differ. Where two headings read alike, the source gives them in different places.", "data": [{"molecule": "5′-^mCs^ocsAs^otstsGs^oTs^ocsas^mCs^oas^mCs^ots^mCs^omC^o-3′ (CCATTGTCACACTCC; all phosphorothioate, sugars by position and methylation of C not given here; further chemistry not fully specified) [miravirsen]", "values": [{"measurement": "therapeutic index", "setting": "[1]", "result": "at least an order of magnitude greater than interferon alpha-2b"}, {"measurement": "metabolism by cytochrome 450 mechanisms", "setting": "cytochrome 450", "result": "not metabolized by cytochrome 450 mechanisms"}, {"measurement": "fold change in susceptibility, NS5B M423I", "setting": "[2]", "result": "1.7 (2.3, 1.0) fold"}, {"measurement": "fold change in susceptibility, NS3 A156T", "setting": "[3]", "result": "1.0 (1.4, 0.5) fold"}, {"measurement": "fold change in susceptibility, NS5A Y93H", "setting": "[4]", "result": "0.9 (0.8, 0.9) fold"}, {"measurement": "fold change in susceptibility, NS5B S282T", "setting": "[5]", "result": "1.9 (2.6, 1.1) fold"}, {"measurement": "mean of the maximum HCV RNA decline from baseline", "setting": "HCV genotype 1; 3 mg/kg", "result": 1.2, "unit": "log10IU/mL"}, {"measurement": "patients who achieved undetectable HCV RNA", "setting": "HCV genotype 1; 5 mg/kg cohort", "result": "One"}, {"measurement": "mean of the maximum HCV RNA decline from baseline", "setting": "HCV genotype 1; 5 mg/kg", "result": 2.9, "unit": "log10IU/mL"}, {"measurement": "patients who achieved undetectable HCV RNA", "setting": "HCV genotype 1; 7 mg/kg cohort", "result": "four"}, {"measurement": "mean of the maximum HCV RNA decline from baseline", "setting": "HCV genotype 1; 7 mg/kg", "result": 3.0, "unit": "log10IU/mL"}, {"measurement": "dose-limiting adverse events", "setting": "HCV genotype 1; 3, 5 or 7 mg/kg", "result": "no dose-limiting adverse events"}, {"measurement": "escape mutations in the HCV genome miR-122 binding sites", "setting": "HCV genotype 1; 3, 5 or 7 mg/kg", "result": "no escape mutations were observed"}, {"measurement": "emergence of viral resistance", "setting": "HCV genotype 1; [7]", "result": "not seen"}, {"measurement": "reduction in HCV RNA", "setting": "HCV genotype 1; [7]", "result": "prolonged dose-dependent reductions in HCV RNA levels"}, {"measurement": "safety and tolerability", "setting": "HCV genotype 1; [7]", "result": "safe, well-tolerated"}, {"measurement": "reduction in HCV RNA", "setting": "HCV genotype 1; chronic HCV genotype 1 infected patients, listed as Miravirsen", "result": "dose-dependent reduction in HCV RNA that was prolonged well beyond the end of active therapy"}, {"measurement": "HCV titre", "setting": "HCV genotype 1; four week clinical trial to assess safety and tolerability", "result": "below detection"}, {"measurement": "activity against HCV genotypes in vitro", "setting": "all HCV genotypes", "result": "activity against all HCV genotypes in vitro; also recorded: effective against all HCV genotypes in vitro"}, {"measurement": "EC50", "setting": "[6]; Huh 7 cells preincubated with miravirsen 24 hours before electroporation with wild-type RNA, read-out: EC50", "result": 25.6, "unit": "µM"}, {"measurement": "EC50", "setting": "[6]; wild-type HCV, transient transfection assays, read-out: average EC50", "result": 36.7, "unit": "µM"}, {"measurement": "CC50", "setting": "Huh-luc/neo-ET cells; read-out: CC50 (+/−SD), tested alone", "result": "> 158", "unit": "µM"}, {"measurement": "HCV RNA suppression in vivo", "setting": "HCV", "result": "long-lasting HCV RNA suppression without emergence of resistance"}]}, {"molecule": "CCC[C@H](NC(=O)[C@@H]1[C@H]2CCC[C@H]2CN1C(=O)[C@@H](NC(=O)[C@@H](NC(=O)c1cnccn1)C1CCCCC1)C(C)(C)C)C(=O)C(=O)NC1CC1", "note": "[Telaprevir, (1S,3aR,6aS)-2-[(2S)-2-[[(2S)-2-Cyclohexyl-2-(pyrazine-2-carbonylamino)acetyl]amino]-3,3-dimethylbutanoyl]-N-[(3S)-1-(cyclopropylamino)-1,2-dioxohexan-3-yl]-3,3a,4,5,6,6a-hexahydro-1H-cyclopenta[c]pyrrole-1-carboxamide]", "values": [{"measurement": "fold change in susceptibility, NS3 A156T", "setting": "[3]", "result": "36.1 (46.9, 25.2) fold"}, {"measurement": "fold change in susceptibility, NS3 A156T", "setting": "[3]; listed as telaprevir", "result": 36.1, "unit": "fold"}, {"measurement": "fold change in susceptibility, NS5B S282T", "setting": "[5]", "result": "1.0 (1.0, 1.0) fold"}, {"measurement": "impact of combination on in vitro cytotoxicity", "setting": "Huh-luc/neo-ET cells; in combination with ribavirin", "result": "antagonistic interaction"}, {"measurement": "Cytotoxicity, Antag Vol", "setting": "Huh-luc/neo-ET cells; [8]", "result": "−50.9", "unit": "μM^2%"}, {"measurement": "Cytotoxicity, Synergy vol", "setting": "Huh-luc/neo-ET cells; [8]", "result": 0.00, "unit": "μM^2%"}, {"measurement": "Cytotoxicity, Antagonism vol", "setting": "Huh-luc/neo-ET cells; [9]", "result": "−5.05", "unit": "μM^2%"}, {"measurement": "Cytotoxicity, Synergy vol", "setting": "Huh-luc/neo-ET cells; [9]", "result": 0, "unit": "μM^2%"}]}]}
